Experimental data reported in the supplement of paper PMC8882468.

Columns and labels:
Assay in all cases: CTG-3D luminescence at 96 h relative to day-0 seeding control (ratio to day 0); higher = more growth / less cytotoxicity; PDxO 3D drug screen, 96 h, CTG-3D normalised to day-0 seeding control.
[1] = system: HCI-008 (organoid from a HER2-enriched breast cancer xenograft)
[2] = system: HCI-003.E2 (organoid from an ER-positive breast cancer xenograft)
[3] = system: HCI-027 (organoid from a triple-negative breast cancer xenograft)
[4] = system: HCI-012 (organoid from a breast cancer xenograft)
[5] = system: HCI-016 (organoid from a triple-negative breast cancer xenograft)
[6] = system: HCI-010 (organoid from a breast cancer xenograft)

CN(Cc1cnc2nc(N)nc(N)c2n1)c1ccc(C(=O)N[C@@H](CCC(=O)O)C(=O)O)cc1 [methotrexate]
CTG-3D luminescence at 96 h
Conditions	12.5 pM	0.00025 µM	0.005 µM	0.1 µM	1 µM	10 µM	100 µM	625 fM
[1], days in culture: 228	1.82	1.9	1.53	1.98	1.97	1.82	1.2	2.01
[1], days in culture: 244	1.4	1.83	1.93	2.13	1.59	1.93	1.66	2.31
[3], days in culture: 176	2.07	1.47	2.43	1.51	1.97	1.55	1.68	1.28
[3], days in culture: 194	1.69	1.38	1.57	1.17	1.04	1.07	0.572	1.44
[3], days in culture: 201	1.69	1.66	2.26	1.14	0.939	0.886	0.445	1.25
[4], days in culture: 143	2.07	1.83	2.09	1.37	1.4	1.33	1.51	2.07
[4], days in culture: 162	2.66	2.5	2.06	1.69	1.04	1.12	1.06	2.7
[4], days in culture: 201	2.49	2.01	1.57	0.935	1.44	0.611	1.21	1.49
[5], days in culture: 153	3.33	1.65	2.64	1.65	1.9	2.08	1.39	2.86
[5], days in culture: 172	2.17	1.68	1.56	1.51	1.49	1.25	1.41	1.71
[5], days in culture: 190	1.69	1.3	1.7	0.906	1.08	1.21	1.52	0.969
[5], days in culture: 199	1.57	1.47	1.56	1.47	1.53	1.37	1.26	1.73
[6], days in culture: 52	2.12	2.41	2.51	2.48	2.58	2.52	2.52	2.58
[6], days in culture: 65	1.6	1.77	1.79	1.86	1.86	1.72	1.46	1.8
[6], days in culture: 103	3.42	3.7	4.03	2.39	2.36	2.1	1.84	3.19

[2]
Conditions	CTG-3D luminescence at 96 h
12.5 pM	2.32
0.00025 µM	2.47
0.005 µM	2.09
0.1 µM	2.12
1 µM	1.83
10 µM	1.9
100 µM	1.64
625 fM	2.12

C=CCn1c(=O)c2cnc(Nc3ccc(N4CCN(C)CC4)cc3)nc2n1-c1cccc(C(C)(C)O)n1 [adavosertib]
CTG-3D luminescence at 96 h
Conditions	12.5 pM	0.00025 µM	0.005 µM	0.1 µM	1 µM	10 µM	100 µM	625 fM
[1], days in culture: 228	2.01	1.96	1.71	1.89	0.689	0.46	0.251	1.88
[1], days in culture: 244	1.42	1.98	1.93	1.91	0.808	0.555	0.252	2.27
[3], days in culture: 176	1.72	1.45	2.67	1.21	0.185	0.0765	0.0542	2.5
[3], days in culture: 194	1.64	1.52	1.33	1.65	0.158	0.0827	0.0536	1.42
[3], days in culture: 201	1.68	1.69	2.08	2.23	0.149	0.0964	0.0691	1.7
[4], days in culture: 143	1.94	1.86	2.1	2.56	2.11	0.226	0.0167	2.06
[4], days in culture: 162	2.21	2.27	2.02	3.54	2.56	0.304	0.0282	3.03
[4], days in culture: 201	2.67	2.07	1.6	1.66	2.25	0.091	0.0326	1.71
[5], days in culture: 153	3.14	2.15	2.59	2.27	0.264	0.0723	0.0508	3.11
[5], days in culture: 172	2.14	1.63	1.55	1.14	0.176	0.0497	0.0492	1.62
[5], days in culture: 190	1.64	1.28	1.36	0.602	0.0834	0.0505	0.0792	1.02
[5], days in culture: 199	1.57	1.35	1.53	1.52	0.172	0.0306	0.0372	1.43
[6], days in culture: 52	2.37	2.26	2.59	1.87	1	0.21	0.0806	2.17
[6], days in culture: 65	1.57	1.67	1.73	1.64	0.816	0.276	0.126	1.61
[6], days in culture: 103	3.65	3.76	3.59	2.95	1.62	0.459	0.242	3.13

[2]
Conditions	CTG-3D luminescence at 96 h
12.5 pM	2.18
0.00025 µM	2.35
0.005 µM	2.25
0.1 µM	2.28
1 µM	1.54
10 µM	0.668
100 µM	0.388
625 fM	2.01

CC(C)(C(=O)NCC(F)(F)C(F)(F)F)C(=O)N[C@@H]1C(=O)Nc2ccccc2-c2ccccc21
CTG-3D luminescence at 96 h
Conditions	12.5 pM	0.00025 µM	0.005 µM	0.1 µM	1 µM	10 µM	100 µM	625 fM
[1], days in culture: 228	1.74	1.41	1	1.3	1.17	1.68	1.05	1.81
[1], days in culture: 244	1.18	1.67	1.24	1.59	1.45	1.45	0.931	2.05
[3], days in culture: 176	2.35	1.45	1.79	0.289	0.192	0.176	0.165	1.96
[3], days in culture: 194	1.64	1.41	1.38	0.35	0.281	0.486	0.484	1.55
[3], days in culture: 201	2.24	1.62	1.57	0.358	0.288	0.407	0.247	1.99
[4], days in culture: 143	1.62	1.71	1.71	2.2	2.22	2.41	1.37	1.72
[4], days in culture: 162	2.77	1.65	1.36	2.46	1.82	2.59	1.53	3.16
[4], days in culture: 201	2.67	2.23	1.91	1.9	2.48	1.51	2.23	1.61
[5], days in culture: 153	2.8	1.65	2.24	1.56	1.82	1.88	0.801	2.19
[5], days in culture: 172	2.46	1.82	1.92	1.28	1.18	1.37	0.772	1.91
[5], days in culture: 190	1.8	1.23	1.17	1.04	1.47	1.46	0.817	1.22
[5], days in culture: 199	1.59	1.04	1.35	1.51	1.42	1.67	0.796	1.63
[6], days in culture: 52	2.08	1.91	2.38	2.13	1.86	1.9	1.24	2.2
[6], days in culture: 65	1.59	1.67	1.85	1.82	1.7	1.58	0.419	1.79
[6], days in culture: 103	2.86	2.96	2.93	2.95	2.98	2.72	2.02	3.05

[2]
Conditions	CTG-3D luminescence at 96 h
12.5 pM	2.16
0.00025 µM	2.26
0.005 µM	2.01
0.1 µM	2.28
1 µM	1.96
10 µM	2.11
100 µM	0.942
625 fM	1.86
